From PubChem BioAssay (NCI)
Several values for one entry are separate records, joined by “and”; a condition that tells them apart may be missing. Equal values may be shown once.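 Step 1: Grow cells in 96-well plates. Step 2: Expose to compound for 48 hours at 5 concentrations. Step 3: Interpolate endpoints linearly; if unreached, use highest concentration. GI50: concentration for 50% inhibition of growth. TGI: total growth inhibition.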

Key:
Experiment in all cases: NCI anticancer screen, dose series, 48 h
OVCAR-4 ovarian = test system: OVCAR-4 ovarian
SK-OV-3 ovarian = test system: SK-OV-3 ovarian
UACC-62 melanoma = test system: UACC-62 melanoma
SF-539 CNS = test system: SF-539 CNS
UACC-257 melanoma = test system: UACC-257 melanoma
CCRF-CEM leukemia = test system: CCRF-CEM leukemia
NCI/ADR-RES ovarian = test system: NCI/ADR-RES ovarian
SK-MEL-28 melanoma = test system: SK-MEL-28 melanoma
COLO 205 colon = test system: COLO 205 colon
U251 CNS = test system: U251 CNS

SMILES	TGI (OVCAR-4 ovarian)	TGI (SK-OV-3 ovarian)	TGI (UACC-62 melanoma)	TGI (SF-539 CNS)	TGI (UACC-257 melanoma)	TGI (CCRF-CEM leukemia)	TGI (NCI/ADR-RES ovarian)	TGI (SK-MEL-28 melanoma)	TGI (COLO 205 colon)	TGI (U251 CNS)	GI50 (OVCAR-4 ovarian) [µM]	GI50 (SK-OV-3 ovarian) [µM]	GI50 (UACC-62 melanoma) [µM]	GI50 (SF-539 CNS)	GI50 (UACC-257 melanoma) [µM]	GI50 (CCRF-CEM leukemia) [µM]	GI50 (NCI/ADR-RES ovarian)	GI50 (SK-MEL-28 melanoma) [µM]	GI50 (COLO 205 colon) [µM]	GI50 (U251 CNS) [µM]
O=C1c2ccccc2C(=O)N1CCCSc1ccccc1	> 100 µM	> 100 µM	> 100 µM	> 100 µM	> 100 µM	> 100 µM	> 100 µM	> 100 µM	> 100 µM	> 100 µM										
O=c1c(Oc2ccc(F)cc2F)cc2cnc(NC3CCOCC3)nc2n1C1CCS(=O)(=O)CC1	> 25 µM	> 25 µM	> 25 µM	> 25 µM	> 25 µM	> 25 µM	> 25 µM	> 25 µM	> 25 µM	> 25 µM	> 25	> 25	> 25	> 25 µM	> 25	> 25	> 25 µM	> 25	> 25	> 25
O=c1ccn(C2OC(CO)C(O)C2F)c(=O)[nH]1 (configuration not stated)	840 µM and > 100 µM	> 1000 µM	> 1000 µM	> 1000 µM	> 1000 µM	> 1000 µM	> 1000 µM	> 1000 µM	> 1000 µM	> 1000 µM	26	> 1000	> 1000	> 1000 µM	> 1000		> 1000 µM	> 1000	> 1000	> 1000
CO[C@@H]1/C=C\C=C(/C)C(=O)NC2=CC(=O)C(NCCN(C)C)=C(C[C@@H](C)C[C@@H](OC)[C@@H](O)[C@H](C)/C=C(\C)[C@H]1OC(N)=O)C2=O	4.76 µM and 4.52 µM	> 37.4 µM and 6.86 µM	1.25 µM and 3.87 µM	11.6 µM and 3.38 µM	2.06 µM and 1.27 µM	3.23 µM and 9.76 µM	29.6 µM and 62.7 µM	> 100 µM and 32.4 µM	0.171 µM	8.18 µM				< 0.01 µM and 0.0319 µM	0.0196	0.0344	5.55 µM and 17.7 µM			0.0144
COc1ccc(CN(C)c2ccc(CO)c(Cl)c2)cc1	> 45.9 µM	88.8 µM	2.24 µM	> 100 µM	1.22 µM	> 100 µM	55.3 µM	> 100 µM	17.5 µM	> 87.3 µM	1.93	18.8	0.274	47.7 µM	0.318	32.9	15.9 µM	24.6	3.55	4.05
CC1=C2[C@@H](CC1)[C@]1(C)O[C@@](C3CCCCC3)(C[C@H]1OC(=O)CO)[C@H]2OC(=O)/C=C/c1ccccc1	23.7 µM	24.5 µM	25.8 µM	27.7 µM	26 µM	24.1 µM	11.6 µM	27.1 µM	24.3 µM	20.5 µM	8.37	9.71	9.82	12.8 µM	12.3	7.45	0.186 µM	9.53	8.06	7.72
Cc1nc2sc(C(=O)Nc3cccc(Cl)c3C)c(N)c2cc1C(=O)/C=C/c1ccccc1	7.03 µM	13 µM	1.91 µM	1.43 µM	12.6 µM	> 50 µM	0.656 µM	2.88 µM	2.39 µM	0.981 µM	1.23	1.44	0.303	0.595 µM	1.5	0.176	0.176 µM	0.641	0.979	0.252
CC(=O)c1c(C)[nH]c(-c2nc3ccc(N4CCN(C)CC4)cc3[nH]2)c1-c1ccc(OCC2CCOCC2)cc1	32.9 µM	11.1 µM	11.2 µM	12.3 µM	4.42 µM	> 47.1 µM	30.5 µM	17 µM	4.65 µM	17.5 µM	0.803	0.377	0.172	1.24 µM	0.789	0.654	1.02 µM	1.62	0.334	2.1
CSc1ccc(C2=NN(C(=O)c3ccc(F)cc3)C(c3ccc(F)cc3)C2)cc1 (configuration not stated)	30.3 µM	31.1 µM	24.5 µM	38.1 µM	28.3 µM	6.52 µM	33 µM	32.6 µM	25.6 µM	15.5 µM	14.9	16.9	11.7	19.4 µM	14.7	2.24	16 µM	18.3	12.3	4.54
O=Cc1ccc(-c2cc(C=O)c(-c3cccs3)[nH]2)s1	75 µM and > 100 µM	75 µM and > 100 µM	75 µM and > 100 µM	75 µM	75 µM and > 100 µM	75 µM and > 100 µM	75 µM and > 100 µM	75 µM and > 100 µM	75 µM and 88.6 µM	62.9 µM and > 100 µM	12	> 100	46		> 100	> 100	68.3 µM	> 100		> 100
